Patent US11999957B2, “Method for enhancing vanillin resistance of Saccharomyces cerevisiae by knocking out SNG1 gene” (QILU UNIVERSITY OF TECHNOLOGY, priority 2020, dated 2024)

How the values were obtained:
sng1Δ mutant [1] = experiment: Growth on YEPD plate containing vanillin (spot dilution test); assay type: cell-based, Saccharomyces cerevisiae; conditions: YEPD plate with 6 mmol/L of vanillin, 30° C., 1-3 days, sng1Δ mutant vs control strain
Procedure: The sng1Δ mutant obtained above was cultured on a YEPD plate containing 6 mmol/L of vanillin to observe its growth status. Specifically, the sng1Δ mutant was inoculated to 1-2 mL of a liquid YEPD medium and cultured at 30° C. overnight to logarithmic growth phase. Then the mutant cells were transferred to 5 mL of fresh medium at an initial OD600 of 0.2, cultured overnight and centrifuged. The cells were collected, washed with 1 mL of sterile water three times and centrifuged at 8,000 r/min. The cells were again suspended with sterile water and placed at 30° C. for 9 h to prepare resting cells, and during the preparation, the medium was prepared, poured to a plate and naturally dried. The cell suspension was adjusted to OD600 of 1.0 and subjected to 10-fold serial dilution, and 4 μL of the suspension at each dilution was dropped on the plate, cultured at 30° C. for 1-3 days and photographed to observe the colony growth. The control strain was tested in the same way for the vanillin resistance.

sng1Δ mutant [2] = experiment: Shake-flask fermentation under vanillin stress (OD600 growth); assay type: cell-based, Saccharomyces cerevisiae
Procedure: (§1) A single colony of the sng1Δ mutant was picked, transferred to 1-2 mL of a SC medium and cultured at 30° C. and 200 rpm for about 24 h. The cell suspension was transferred to 20 mL of fresh medium at an initial OD600 of 0.2 and cultured at 30° C. and 200 rpm overnight to the mid log phase for secondary activation. Then the cell culture, at an initial OD600 of 0.2, was transferred to 40 mL of a SC medium containing 6 mmol/L of vanillin and cultured at 30° C. and 200 rpm under shaking, where the OD600 was regularly measured.
(§2) The maximum specific growth rate was obtained by calculating a […] regression slope of ln(OD600) versus time in the logarithmic growth phase.

wild-type BY4741 strain = experiment: as above; assay type: cell-based, Saccharomyces cerevisiae; conditions: wild-type BY4741, SC medium containing 6 mmol/L of vanillin, 30° C., 200 rpm
Procedure: as §1, §2
Similarly, the specific consumption rate of vanillin in the wild-type BY4741 strain was calculated to be 0.035 g g^−1 h^−1 according to the above method (FIG. 4).

Saccharomyces cerevisiae = conditions: 0.9 g/L vanillin; extended from 2 hours without vanillin; cited from earlier work

## COc1cc(C=O)ccc1O [vanillin]
sng1Δ mutant [1]
  growth status on plate under vanillin stress: superior growth status to the control strain
sng1Δ mutant [2]; sng1Δ mutant, SC medium containing 6 mmol/L of vanillin, aerobic, shaking, 30° C., 200 rpm
  maximum specific growth rate: 0.225 h⁻¹
sng1Δ mutant [2]; under vanillin stress (6 mmol/L), sng1Δ mutant vs BY4741
  improvement of maximum specific growth rate of sng1Δ mutant compared to the control strain: 70%
wild-type BY4741 strain
  maximum specific growth rate: 0.132 h⁻¹
Saccharomyces cerevisiae
  delay period (lag) of growth: about 24 hours
